Assay [1] deals with T1, S1P1 (Homo sapiens, UniProt P21453). The assay is described as follows: Tango β-arrestin Recruitment Assay in U2OS cells (Assay 2b). It counts as cell-based. The arrangement: linker with TEV protease (N1a) cleavage site (C). The note with it: Tango β-arrestin Recruitment Assay, read-out: Assay 2b EC50. Summed up: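 Agonist EC50 from percent activity relative to 1 μM S1P efficacy control, using background-subtracted 460/530 nm emission ratios. Compounds (max 1 μM, ten 3-fold dilutions) incubated overnight at 37 °C with serum-starved S1P1 U2OS reporter cells, followed by 2 h β-lactamase reagent at room temperature.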
A general note: Recruitment of arrestin is a read-out of receptor activation apart from second messengers.
Target sequence in this assay (P21453 whole entry): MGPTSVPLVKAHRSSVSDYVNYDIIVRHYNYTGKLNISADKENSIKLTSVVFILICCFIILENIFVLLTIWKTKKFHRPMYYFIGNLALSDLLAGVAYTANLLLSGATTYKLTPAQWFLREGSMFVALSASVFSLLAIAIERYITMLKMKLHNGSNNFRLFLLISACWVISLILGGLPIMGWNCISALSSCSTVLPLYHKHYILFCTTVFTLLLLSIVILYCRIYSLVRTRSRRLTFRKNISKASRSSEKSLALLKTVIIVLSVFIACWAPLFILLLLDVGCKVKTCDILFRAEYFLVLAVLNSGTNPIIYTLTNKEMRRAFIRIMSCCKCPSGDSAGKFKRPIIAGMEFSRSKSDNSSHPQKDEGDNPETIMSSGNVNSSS
Target sequence in this assay (P32121 whole entry partner): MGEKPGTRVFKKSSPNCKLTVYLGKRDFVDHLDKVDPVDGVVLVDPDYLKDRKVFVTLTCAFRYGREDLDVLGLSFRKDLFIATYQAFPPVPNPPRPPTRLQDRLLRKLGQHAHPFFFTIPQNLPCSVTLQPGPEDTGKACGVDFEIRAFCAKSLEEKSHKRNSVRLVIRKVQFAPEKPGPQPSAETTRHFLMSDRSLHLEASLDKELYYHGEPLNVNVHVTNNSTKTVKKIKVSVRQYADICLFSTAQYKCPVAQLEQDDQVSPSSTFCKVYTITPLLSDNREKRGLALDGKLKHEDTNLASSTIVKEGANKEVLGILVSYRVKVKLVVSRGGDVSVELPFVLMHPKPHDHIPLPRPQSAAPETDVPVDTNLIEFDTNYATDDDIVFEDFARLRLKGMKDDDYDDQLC

Assay [2] deals with T1, S1P1. The assay is described as follows: CNG cAMP Assay (Assay 1). It counts as cell-based. More on the design: host or cells: HEK293 cells expressing the CNG channel. The note with it: read-out: Assay 1 EC50. The procedure, abridged:
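cAMP-gated CNG membrane-potential read-out (350/590 nm, T90/T0 ratio) in S1P1/CNG HEK293 cells after 90 min with compound plus NECA 500 nM, S1P 10 nM (EC95), Ro 20-1724 25 μM. Ten 3-fold points from 10 μM, 1.8% DMSO; percent activity vs NECA-only control gives EC50.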
Target sequence in this assay (P21453 whole entry): as the sequence (P21453 whole entry) above

The term EC50 denotes the midpoint of the concentration-response curve.

Turning to `O=C(O)CCc1cc(Cl)c(-c2noc(-c3cn4cc(C(F)(F)F)cc(Cl)c4n3)n2)cc1F` [Entry 24], the concentration giving a half-maximal response (EC50) at S1P1 [1] and on S1P1 [2] was at most 100 nM throughout.

As for `O=C(O)CCc1cc(Cl)c(-c2noc(-c3cn4cc(C(F)(F)F)cc(Br)c4n3)n2)cc1F` [Entry 49], the EC50 on S1P1 [1] and on S1P1 [2] was at most 100 nM each time.

Take `Cc1cc(CCC(=O)O)c(Cl)cc1-c1noc(-c2cn3cc(C(F)(F)F)cc(Cl)c3n2)n1` [Entry 56]: the EC50 on S1P1 [1] and on S1P1 [2] was at most 100 nM in each case.

For the compound `C[C@H](CO)Oc1cc(Cl)c(-c2noc(-c3cn4cc(C(F)(F)F)cc(Cl)c4n3)n2)cc1F` [Example 93, (2R)-2-[(5-chloro-4-{5-[8-chloro-6-(trifluoromethyl)imidazo[1,2-a]pyridin-2-yl]-1,2,4-oxadiazol-3-yl}-2-fluorophenyl)oxy]propan-1-ol], the EC50 on S1P1 [1] and on S1P1 [2] was at most 100 nM throughout.

In the case of `O=C(O)CCc1cc(Cl)c(-c2nnc(-c3cn4cc(C(F)(F)F)cc(Cl)c4n3)s2)cc1F` [Example 176, 3-(5-chloro-4-{5-[8-chloro-6-(trifluoromethyl)imidazo[1,2-a]pyridin-2-yl]-1,3,4-thiadiazol-2-yl}-2-fluorophenyl)propanoic acid], the half-maximal effective concentration (EC50) at S1P1 [1] and at S1P1 [2] was at most 100 nM in each case.

For `O=C(O)CCc1cc(Cl)c(-c2nnc(-c3cn4cc(C(F)(F)F)cc(Br)c4n3)s2)cc1F` [Example 177, 3-(4-{5-[8-bromo-6-(trifluoromethyl)imidazo[1,2-a]pyridin-2-yl]-1,3,4-thiadiazol-2-yl}-5-chloro-2-fluorophenyl)propanoic acid], the concentration for a half-maximal effect (EC50) on S1P1 [1] and at S1P1 [2] was at most 100 nM in each case.

In the case of `OCC(O)COc1cc(Cl)c(-c2noc(-c3cn4cc(C(F)(F)F)cc(Cl)c4n3)n2)cc1Cl` (stereo not drawn) [Example 208, 3-[(2,5-dichloro-4-{5-[8-chloro-6-(trifluoromethyl)imidazo[1,2-a]pyridin-2-yl]-1,2,4-oxadiazol-3-yl}phenyl)oxy]propane-1,2-diol], the EC50 on S1P1 [1] and on S1P1 [2] was at most 100 nM throughout.

Turning to `O=C(O)CCc1cc(Cl)c(-c2nc(-c3cn4cc(C(F)(F)F)cc(Cl)c4n3)no2)cc1F` [Example 233, 3-(5-chloro-4-{3-[8-chloro-6-(trifluoromethyl)imidazo[1,2-a]pyridin-2-yl]-1,2,4-oxadiazol-5-yl}-2-fluorophenyl)propanoic acid], the 50% effective concentration (EC50) at S1P1 [1] and at S1P1 [2] was at most 100 nM throughout.

`O=C(O)CCc1cc(Cl)c(-c2noc(-c3cn4cc(C(F)(F)F)cc(Cl)c4n3)n2)cc1Cl` [Example 242, 3-(2,5-dichloro-4-{5-[8-chloro-6-(trifluoromethyl)imidazo[1,2-a]pyridin-2-yl]-1,2,4-oxadiazol-3-yl}phenyl)propanoic acid]: the half-maximal effective concentration (EC50) on S1P1 [1] and at S1P1 [2] was at most 100 nM throughout.

For `OCCOc1cc(Cl)c(-c2noc(-c3cn4cc(C(F)(F)F)cc(Cl)c4n3)n2)cc1F` [Example 263, 2-[(5-chloro-4-{5-[8-chloro-6-(trifluoromethyl)imidazo[1,2-a]pyridin-2-yl]-1,2,4-oxadiazol-3-yl}-2-fluorophenyl)oxy]ethanol], the EC50 on S1P1 [1] and at S1P1 [2] was at most 100 nM in each case.

As for `CC(C)Oc1cc(Cl)c2nc(-c3nc(-c4cc(F)c(CCC(=O)O)cc4Cl)no3)cn2c1` [Example 301, 3-[5-chloro-4-(5-{8-chloro-6-[(1-methylethyl)oxy]imidazo[1,2-a]pyridin-2-yl}-1,2,4-oxadiazol-3-yl)-2-fluorophenyl]propanoic acid], the EC50 on S1P1 [1] and on S1P1 [2] was at most 100 nM throughout.

Take `O=C(O)CCc1cc(Cl)c(-c2noc(-c3cn4cc(I)cc(Cl)c4n3)n2)cc1F` [Example 302, 3-{5-chloro-4-[5-(8-chloro-6-iodoimidazo[1,2-a]pyridin-2-yl)-1,2,4-oxadiazol-3-yl]-2-fluorophenyl}propanoic acid]: the concentration for a half-maximal effect (EC50) at S1P1 [1] and at S1P1 [2] was at most 100 nM throughout.
